From patent US9549911B2, “Ginger metabolites and uses thereof” (North Carolina A&T State University, priority 2012, dated 2017)
Like-named read-outs stand apart in the source and are kept apart here.

How the values were obtained:
A549 cells [1] = assay: Cell Death Detection ELISA apoptosis (Part 4); format: cell-based, human; conditions: A549, 20 μM, 24 hours; for enrichment factor (small nucleosomes, ELISA): with pft
Experimental: The Cell Death Detection ELISA (Enzyme-linked immunoabsorbant assay) Plus kit from Roche (Mannheim, Germany) was used. […] After 24 hours, the microplate was centrifuged for 10 minutes at 1200 rpm, and the supernatant was removed. 200 μl of the lysis buffer was added in each well and incubated for 30 minutes at room temperature. The plate was then centrifuged for 10 minutes at 1200 rpm and 20 μl of the supernatant was transferred to streptavidin-coated micro-wells. ELISA assay was performed according to manufacturer's instruction. Absorbance in each well was measured at 405 nm in absorbance units (AU), and the enrichment factor (EF) in small nucleosomes was calculated with the formula EF=AU treated/AU DMSO.

A549 cancer cells = assay: MTT cell viability (Part 4); format: cell-based, human; conditions: A549, 24 hours, read-out: IC50 (toxicity, MTT)
[2] = system: human colon fibroblast cells CCD-18Co; assay: in vitro; format: cell-based
Experimental: (§1) Growth inhibition of human cancer and normal cells. Cell growth inhibition was determined by a MTT colorimetric assay. Human colon cancer cells HCT-116, human lung cancer cells H-1299, human colon fibroblast cells CCD-18Co, and human lung fibroblast cells IMR-90 were plated in 96-well microtiter plates with 3000 cells/well and allowed to attach for 24 h at 37° C. […] After the cells were cultured for 48 h, the medium was aspirated and cells were treated with 200 μL fresh medium containing 2.41 mmol/L MTT. […] The reading reflected the number of viable cells and was expressed as a percentage of viable cells in the control. Both HCT-116 and H-1299 cells were cultured in McCoy's 5A medium. CCD-18Co and IMR-90 cells were cultured in Eagle's modified essential medium (EMEM). All of the above media were supplemented with 10% fetal bovine serum, 1% penicillin/streptomycin, and 1% glutamine, and the cells were kept in a 37° C. incubator with 95% humidity and 5% CO2.

[3] = system: human lung fibroblast cells IMR-90; assay: in vitro; format: cell-based
Experimental: as §1

A549 cells [4] = assay: Western blotting of apoptosis and p53 pathway markers; format: cell-based, human; conditions: A549, 20 or 40 μM; for p53 levels (Western blot): 2 and 24 hours; for pro-apoptotic markers cytochrome C, cleaved caspase 3 and 9 (Western blot): 2 hours
Experimental: Cell extracts were prepared by incubating cells for 5 minutes on ice with RIPA (Radio-Immunoprecipitation Assay) buffer (Thermo Fisher Scientific, Rockford, Ill.) supplemented with a protease and phosphatase inhibitor mix. Cell lysate was then centrifuged at 13,000 rpm at 4° C. for 20 minutes, and supernatant was harvested for Western blot analysis. Briefly, 30-60 μg of protein extract were separated on a 10-16% polyacrylamide gel and transferred on PVDF (polyvinylidene difluoride) membrane (Biorad, Hercules, Calif.). Membrane was blocked using a 1% casein solution in TBS-Tween 20. Primary rabbit antibodies were diluted in blocking solution and incubated with the membrane overnight at 4° C. After washing the membrane with 3 changes of TBS-T, secondary Horse Radish Peroxydase (HRP)-conjugated anti-rabbit antibody was diluted 1:3000 in blocking solution and incubated with PVDF membrane for 1 hour at room temperature. […] Films were developed using a SRX-101A Konica Minolta developer (Tokyo, Japan). The experiment was repeated independently twice to confirm the results. Fold-induction of proteins calculated by normalizing the band of interest to the loading control (β-actin), and this adjusted intensity what compared to the control (DMSO) sample.

A549 cells [5] = assay: Intracellular glutathione (GSH, GSH/GSSG) measurement; format: cell-based, human; conditions: A549, 10 μM
Experimental: The total GSH content was measured using a HT Glutathione Assay kit (Trevigen, Galthersburg, Md.). Briefly A549 cells were plated in 60×15 mm culture plates and were allowed to attach overnight at 37° C. Cells were treated with 10 μM M2 and incubated for 0, 2, 4, 8, or 24 hours. Cells were harvested and proteins were precipitated with 5% (w/v) metaphosphoric acid. Samples were then processed following the manufacturer's instructions. The measurement of the absorbance of 5-thio-2-nitrobenzoic acid (TNB) at 405 nm was used to quantify glutathione levels in each sample, which was then compared to the standard curve and corrected for protein concentration.
For measurement of oxidized glutathione (Glutathione Disulfide or GSSG), samples and GSSG standards were treated with 2M 4-vinylpyridine (1 μL/50 μL sample) at room temperature for one hour. 4-Vinylpyridine (Sigma Aldrich, St. Louis, Mo.) blocks free thiols present in the reaction, consequentially blocking the formation of new GSSG by GSH. The 2M solution was freshly prepared by diluting 4-vinylpyridine in ethanol in a ratio of approximately 1:3.6. After incubation, samples were processed using the Trevigen kit's protocol and absorbance was measured at 405 nm as described herein.
The quantity of reduced cellular glutathione (or GSH) is obtained by subtracting the oxidized samples values from the total glutathione values or: GSH(reduced)=GSH(total)−GSSG(oxidized). Ratios of reduced to oxidized glutathione are shown to further represent cellular redox status after treatment with 6S or M2.

[6] = system: IMR90 normal human lung cells; assay: MTT cell viability (Part 4); format: cell-based; conditions: read-out: IC50 (toxicity, MTT)

Row | Compound | enrichment factor (small nucleosomes, ELISA) (A549 cells [1]) | IC50 (A549 cancer cells) | IC50 [2] | IC50 [3] | p53 levels (Western blot) (A549 cells [4]) | pro-apoptotic markers cytochrome C, cleaved caspase 3 and 9 (Western blot) (A549 cells [4]) | intracellular GSH levels (A549 cells [5]; 2 hours) | GSH/GSSG ratio (A549 cells [5]; 4 hours) | intracellular GSH levels (A549 cells [5]; 8 hours) | GSH/GSSG ratio (A549 cells [5]; 24 hours) | intracellular GSH levels compared to baseline (A549 cells [5]; 24 hours) | IC50 [6] | enrichment factor (cytoplasmic histone-associated DNA fragments, ELISA) (A549 cells [1]; without pft) | IC50 (A549 cancer cells; listed as 6S) | GSH/GSSG ratio (A549 cells [5]; 2 hours) | IC50 ([6]; listed as 6S)
1 | CCCCCC(CC(=O)CCc1ccc(O)c(OC)c1)SC[C@H](N)C(=O)O (some centres unmarked) [M2, 5-cysteinyl-[6]-shogaol] | 2 | 30.4 µM | 99.2 µM | 98.3 µM | increase in p53 levels | elevated after 2 hours | significantly depleted | significantly lower | significantly higher | significantly higher | significantly increased | 98.3 µM |  |  |  | 
2 | CCCCC/C=C/C(=O)CCc1ccc(O)c(OC)c1 [[6]-shogaol, reference compound] | about 1 |  | 43.9 µM | 36.6 µM | increase in p53 levels | elevated after 2 hours | significantly depleted | significantly lower | significantly lower | significantly higher | significantly increased |  | 2.2 | 25.2 µM | significantly lower | 36.6 µM
